Data set [1] has as its system flies with neuronal specific knockdown of both Sodh1 and Sodh2. The data set can be described thus: Locomotor activity (negative geotaxis assay), Sodh1 and Sodh2 double knockdown flies. The class given is in vivo, Drosophila melanogaster. To be noted: neuronal specific knockdown of Sodh1 and Sodh2, 80 μM in food, vs yw control flies. As for the experimental part:
FIG. 7. Treatment with aldose reductase inhibitors Epalrestat and Ranirestat restore locomotor function in Sodh1 and Sodh2 double knockdown flies. Locomotor activity of control flies (yw) feeding with DMSO (dots, first data point from the left for each DAE point indicated), or flies with neuronal specific knockdown of Sodh1 and Sodh2 feeding with DMSO (squares, second data point from the left for each DAE point indicated), 80 μM Epalrestat (squares, third data point from the left for each DAE point indicated), or 80 μM Ranirestat (squares, forth data point from the left for each DAE point indicated). n=10 in each group. Data are presented as mean±s.d. Statistical analysis was performed using Two-Way ANOVA followed by post-hoc Tukey's multiple comparison test. ***P<0.001, ****P<0.0001. […] Equal amount of DMSO was mixed into the fly food as control. The vials were dried at room temperature for 12 h before feeding. For lifespan assay, 100 newly enclosed female flies of each group were collected and placed in vials of 20 individuals. Flies were transferred into new vials every 2 days and the number of dead flies was counted. Survival data was plotted using Kaplan-Meier plot and compared between groups using log-rank test. […] Flies that crossed the 8 cm line were counted. […]

Data set [2] has as its system Sodh2MB01265/MB01265 mutant flies. The data set can be described thus: Age-dependent synaptic degeneration in the lamina (vacuoles, BRP immunostaining, confocal microscopy). The class given is in vivo, Drosophila melanogaster. As for the experimental part:
FIGS. 4A-G. Treatment with aldose reductase inhibitors Epalrestat and Ranirestat decrease sorbitol level and restore function. (FIG. 4A) Intracellular sorbitol level as measured by UPLC and normalised to protein content in fibroblasts from healthy controls (n=5, circle dots) and patients carrying biallelic nonsense mutations in SORD (n=5, square dots) after three days of treatment with Epalrestat 100 μM, Ranirestat 10 μM or DMSO. (FIG. 4B) Sorbitol level as measured by UPLC from brain/head homogenates and normalised to protein concentration from wild-type (yw, empty circle dots), Sodh2^MB01265/MB01265 (full circle dots) and neuron-specific knock-down of Sodh1 and […] (square dots) Drosophilae at 10 days after eggs enclosure. Sodh2 Mimic and Sodh1 and Soh2 RNAi Drosophilae were fed with either 80 μM Epalrestat, 80 μM Ranirestat or DMSO. The graphs show the mean±s.d. A two-tailed t-test was performed to compare sorbitol level. Statistical significance is indicated as *, ** or *** if P-value <0.05, <0.01 or <0.001, respectively, unless otherwise specified. All experiments were repeated independently twice with similar results. (FIG. 4C) Locomotor activity of control flies (yw) feeding with DMSO, Sodh2^MB01265/MB01265 flies feeding with DMSO, 80 μM Epalrestat, or 80 μM Ranirestat (n=10 in each group). Data are presented as mean±s.d. Statistical analysis was performed using Two-Way ANOVA followed by post-hoc Tukey's multiple comparison test. *P<0.05, ***P<0.001 (FIGS. 4D-4F) Laminae of Sodh2^MB01265/MB01265 homozygous flies at 10 DAE and 40 DAE fed with DMSO (FIG. 4D), 80 μM Epalrestat (FIG. 4E), or 80 μM Ranirestat (FIG. 4F). Arrowheads indicate the lamina vacuoles. Boxes indicate higher magnification areas of the lamina. The intensity of BRP is indicated. […] (FIG. 4G) Quantification of the vacuole number, size, and BRP intensity of (FIGS. 4D-4F). n=3. […]
Brain dissection and staining were carried out as previously described (Brazill et al., J Vis Exp. 2018; (138)). […] Images were processed and analyzed using FluoView 10-ASW (Olympus).

For data set [3], the system named is Sodh2MB01265/MB01265 flies. The data set is described as follows: Locomotor activity (negative geotaxis assay), Sodh2 mutant flies. The class given is in vivo, Drosophila melanogaster. To be noted: 80 μM in food, vs yw control flies. As for the experimental part:
[…] Equal amount of DMSO was mixed into the fly food as control. The vials were dried at room temperature for 12 h before feeding.
For lifespan assay, 100 newly enclosed female flies of each group were collected and placed in vials of 20 individuals. Flies were transferred into new vials every 2 days and the number of dead flies was counted. Survival data was plotted using Kaplan-Meier plot and compared between groups using log-rank test. For negative geotaxis behavior assay, 10 age-matched female flies were placed in a vial marked with a black line drawn horizontally 8 cm above the bottom. Flies were given 60 min to fully recover from CO2 anesthesia, and were gently tapped onto the bottom and given 10 s to climb. Flies that crossed the 8 cm line were counted. For each vial, this assay was repeated 10 times, and 10 independent vials of each group (a total 100 flies per group) were tested. To minimize observer-expectancy bias, this assay was performed with the examiner masked to the group assignment.

Data set [4] concerns Sodh2MB01265/MB01265 Drosophila. The data set can be described thus: Sorbitol level in fly brain/head homogenates (UPLC). The class given is in vivo, Drosophila melanogaster. To be noted: Sodh2MB01265/MB01265 flies at 10 DAE; fed from 2 DAE, 80 μM / 80 μg/ml in food.
Protocol: (FIG. 4B) Sorbitol level as measured by UPLC from brain/head homogenates and normalised to protein concentration from wild-type (yw, empty circle dots), Sodh2^MB01265/MB01265 (full circle dots) and neuron-specific knock-down of Sodh1 and Sodh1 by RNAi (square dots) Drosophilae at 10 days after eggs enclosure. Sodh2 Mimic and Sodh1 and Soh2 RNAi Drosophilae were fed with either 80 μM Epalrestat, 80 μM Ranirestat or DMSO. The graphs show the mean±s.d. A two-tailed t-test was performed to compare sorbitol level. Statistical significance is indicated as *, ** or *** if P-value <0.05, <0.01 or <0.001, respectively, unless otherwise specified.
Lysate samples underwent protein precipitation with Acetonitrile (1:5), ten-time dilution with Acetonitrile-water (50/50) and clean up on Oasis HLB cartridges (10 mg/1 ml), before injection in UPLC (3 μL). UPLC conditions: column, BEH Amide 1.7 μm (2.1×100 mm) at 88° C., eluent A, Acetonitrile 90%-water 5%-Isopropanol 5%, eluent B, Acetonitrile 80%-water 20%, gradient elution 0 min., 100% A, 3.6 min. 100% B, flow rate, 0.45 ml/min. The retention time of sorbitol was 2.7 min. MS/MS conditions: interface, Electrospray interface in negative ion mode, Multiple Reaction Monitoring acquisition, m/z 180.9→88.9 (CV 24, CE 15).
Unless specified, all flies were kept on cornmeal-molasses-yeast medium at 25° C., 65% humidity, with 12 h light/12 h dark cycles. […]
For data set [5], the system named is patient fibroblasts lacking functional SORD. The data set can be described thus: Intracellular sorbitol level in patient fibroblasts (UPLC-MS/MS, normalised to protein content). Type of data set: cell-based, human. To be noted: 72 hrs, Epalrestat 100 μM, Ranirestat 10 μM, vs DMSO.
Protocol: Asynchronous cell cultures were grown to approximately 80% confluency and treated with epalrestat (100 μM), ranirestat (10 μM) or DMSO for 72 hours. Media containing the drugs or DMSO were changed every 24 hours.
Sorbitol determination in human fibroblast lysates was performed in ultra-performance liquid chromatography-tandem mass spectrometry (UPLC-MS/MS) (Waters Acquity UPLC & TQD mass spectrometer—Waters, Milford, MA, USA). […] Lysate samples underwent protein precipitation with Acetonitrile (1:5), ten-time dilution with Acetonitrile-water (50/50) and clean up on Oasis HLB cartridges (10 mg/1 ml), before injection in UPLC (3 μL). UPLC conditions: column, BEH Amide 1.7 μm (2.1×100 mm) at 88° C., eluent A, Acetonitrile 90%-water 5%-Isopropanol 5%, eluent B, Acetonitrile 80%-water 20%, gradient elution 0 min., 100% A, 3.6 min. 100% B, flow rate, 0.45 ml/min. The retention time of sorbitol was 2.7 min.
The effect of two commercially available aldose reductase inhibitors (ARI), Epalrestat and Ranirestat, were tested on intracellular sorbitol accumulation in patient fibroblasts lacking functional SORD. Patient and control fibroblasts were grown for 72 hrs in the presence or absence of Epalrestat (100 μM) or Ranirestat (10 μM) and intracellular sorbitol levels were measured thereafter.
In data set [6] the test system is aldose reductase (AR) (AKR1B1 gene). The data set can be described thus: Knock-down of aldose reductase by antisense oligonucleotide, Western blot normalized to β-tubulin. The class given is cell-based, Homo sapiens. Particulars: SORD patient fibroblast and control fibroblasts; scrambled ASO (AR-S 1A) as control. As for the experimental part:
FIGS. 15A-15D. […] This was carried out in a SORD patient fibroblast and control fibroblasts and normalized to β-tubulin and measured via Western blot (FIGS. 15C-15D).
Fibroblasts were lysed in RIPA buffer (ThermoFisher) containing protease inhibitor (Roche) and sonicated for 5 minutes with the Bioruptor sonication device (Diagenode). Cell lysates were centrifuged at 13,000×g for 10 minutes at 4° C., and the supernatant was collected for protein quantification (Pierce BCA Protein Assay Kit). 30 μg of protein sample was mixed with Bolt LDS Sample Buffer and Sample Reducing Agent (ThermoFisher) and heated at 90° C. for 5 min. Samples were loaded on Bolt 4-12% Bis-Tris Plus mini-gel followed by transfer into a nitrocellulose membrane (Bio-Rad). Membrane was blocked with 5% non-fat milk and incubated with anti-SORD (ab189248, Abcam) antibody for 2 hours, washed with TBS containing 0.01% Tween 20 (Bio-Rad) and incubated with a secondary anti-rabbit antibody (Cell Signaling). Membrane was subsequently incubated with GAPDH primary antibody (Santa Cruz) and secondary anti-mouse antibody (Cell Signaling). Chemoluminescence detection was performed with the SuperSignal West Pico PLUS Chemiluminescent Substrate and imaged with the FluorChem E (ProteinSimple).

Where [7] appears, read: Sodh2MB01265/MB01265 flies, at both 10 and 40 DAE, 80 μM in food.

In the case of `O=C1C[C@@]2(C(=O)N1)C(=O)N(Cc1ccc(Br)cc1F)C(=O)c1cccn12` [Ranirestat], the locomotor activity entry in data set [1] is reported as “rescued to the levels of yw control flies”. Moreover, in data set [2] (setting [7]), the “localization of synaptic cytomatrix protein BRP” value is given as “restored the localization of synaptic cytomatrix protein BRP” and the “number of lamina vacuoles” value was “reduced the number of vacuoles”. Besides, the age-dependent synaptic defects result in data set [2] (Sodh2MB01265/MB01265 mutant flies, drug feeding) was “restored the age-dependent synaptic defects”. Further, the locomotor activity entry in data set [3] was “rescued to the levels of yw control flies”. In addition, in data set [4], the “sorbitol level in fly heads” value is reported as “significant reduction of sorbitol level”. In addition, the intracellular sorbitol level entry in data set [5] is listed as “significant reduction of sorbitol to a level comparable to controls”.
For “AR 1A: antisense oligonucleotide (ASO) targeting aldose reductase (AKR1B1), SEQ ID NO: 22, GTTTAAGATCATCTCCACCT, modified backbone (modified backbone, type not given here)”, the “aldose reductase protein level (knock-down)” value in data set [6] is “Significant knock-down”.
